Test results reported in PubChem BioAssay (NCI).
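Dose response: 5 concentrations. Exposure: 48 h. Format: 96-well plates. Endpoint: linear interpolation; highest concentration if not reached. At the GI50, growth is halved. TGI marks complete inhibition of growth.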

Experiments:
Experiment in all cases: NCI tumour cell line growth inhibition, 48 h
NCI-H226 lung = test system: NCI-H226 lung
ACHN renal = test system: ACHN renal
SNB-19 CNS = test system: SNB-19 CNS
SF-539 CNS = test system: SF-539 CNS
NCI/ADR-RES ovarian = test system: NCI/ADR-RES ovarian
HL-60(TB) leukemia = test system: HL-60(TB) leukemia
OVCAR-4 ovarian = test system: OVCAR-4 ovarian
HCT-15 colon = test system: HCT-15 colon
SK-MEL-5 melanoma = test system: SK-MEL-5 melanoma
DU-145 prostate = test system: DU-145 prostate

Structure (SMILES)	TGI (NCI-H226 lung)	TGI (ACHN renal)	TGI (SNB-19 CNS)	TGI (SF-539 CNS)	TGI (NCI/ADR-RES ovarian)	TGI (HL-60(TB) leukemia)	TGI (OVCAR-4 ovarian)	TGI (HCT-15 colon)	TGI (SK-MEL-5 melanoma)	TGI (DU-145 prostate)	GI50 (NCI-H226 lung)	GI50 (ACHN renal)	GI50 (SNB-19 CNS)	GI50 (SF-539 CNS)	GI50 (NCI/ADR-RES ovarian)	GI50 (HL-60(TB) leukemia)	GI50 (OVCAR-4 ovarian)	GI50 (HCT-15 colon)	GI50 (SK-MEL-5 melanoma)	GI50 (DU-145 prostate)
O=[N+]([O-])c1nccn1CC(O)CN1CCCCC1 (stereo unspecified)	> 100 µM	> 100 µM	> 100 µM	> 100 µM	> 100 µM	> 100 µM	> 100 µM	> 100 µM	> 100 µM	> 100 µM										
O=C(Nc1ccc(-n2ccc3c(NC(=O)c4ccccc4)ncnc32)cc1)c1cccc(C(F)(F)F)c1	26.1 µM	23.6 µM	33.4 µM	> 93.3 µM	37.4 µM	36.7 µM	31.2 µM	24.8 µM	15.8 µM	16.1 µM	6.14 µM	1.09 µM	2.13 µM	1.11 µM	2.67 µM	3.02 µM	4.31 µM	0.0643 µM	0.232 µM	1.77 µM
C=C/C(C)=C/C[C@]1(C)[C@H](C)[C@@H](OC(=O)CCC)[C@H](O)[C@@]23C(=C[C@H](OC)C[C@@H]12)[C@@H](OC(=O)CCC)O[C@H]3OC(C)=O	1.34 µM	0.619 µM	3.58 µM	1.6 µM	2.46 µM	0.693 µM	1.34 µM	1.29 µM	2.03 µM	2.9 µM	0.38 µM	0.234 µM	1.66 µM	0.566 µM	0.88 µM	0.228 µM	0.351 µM	0.34 µM	0.704 µM	1.53 µM
O=c1cc(-c2ccc(O)cc2)oc2cc(O[C@@H]3O[C@H](CO)[C@@H](O)[C@H](O)[C@H]3O)cc(O)c12	> 100 µM	> 100 µM	> 100 µM	> 100 µM	> 100 µM	> 100 µM	> 100 µM	> 100 µM	> 100 µM	> 100 µM										
CN(C)c1nc(=NCc2ccco2)ss1	> 91.5 µM	45 µM	> 80.4 µM	19.8 µM	> 100 µM	10.6 µM	51.7 µM	49.9 µM	> 100 µM	> 100 µM										
O=c1c2cc(-c3ccccc3)sc2ncn1Cc1ccc(Cl)c(Cl)c1	87.2 µM	75.6 µM	> 100 µM	43 µM	59 µM	34.1 µM	38 µM	> 100 µM	> 100 µM	> 100 µM	13.1 µM	22.7 µM	26.8 µM	14 µM	19.5 µM	14.9 µM	12.5 µM	0.845 µM	34.2 µM	32.9 µM
CCC(C)Oc1nc2c(c(=O)n(C)c(=O)n2C)n1C (stereo unspecified)	> 100 µM	> 100 µM	> 100 µM	> 100 µM	> 100 µM	> 100 µM	> 100 µM	> 100 µM	> 100 µM	> 100 µM	> 100 µM	> 100 µM	> 100 µM	> 100 µM	> 100 µM	> 100 µM	> 100 µM	> 100 µM	> 100 µM	> 100 µM
COc1cc2ncnc(-n3ncc4cc(NC(=O)Nc5ccc(Cl)c(Cl)c5)ccc43)c2cc1OC	4.8 µM	3.25 µM	9.58 µM	2.47 µM	6.23 µM	85 µM	3.89 µM	4.87 µM	3.89 µM	11.9 µM	2.45 µM	1.45 µM	2.66 µM	0.612 µM	2.36 µM	4.44 µM	1.92 µM	1.93 µM	2.09 µM	3.2 µM
O=C(O)/C=C\C(=O)Nc1ccccn1	> 100 µM	> 100 µM	> 100 µM	> 100 µM	> 100 µM	> 100 µM	> 100 µM	> 100 µM	> 100 µM	> 100 µM										
CCOc1ccc2c(c1)C(=O)c1c-2n(CCCBr)c(=O)c2cc([N+](=O)[O-])ccc12	> 100 µM	69.7 µM	> 100 µM	40.9 µM	> 100 µM	> 100 µM	> 100 µM	> 100 µM	25.7 µM	> 100 µM	5.64 µM	3.76 µM	4.75 µM	5.57 µM	9.06 µM	64.5 µM	> 100 µM	36 µM	8.74 µM	4.29 µM
CCCCCN(CCCCC)CC(O)c1cc(Cl)ccc1OC (stereo unspecified)	23.6 µM	24.9 µM	50.1 µM	24.3 µM	25.9 µM	25.9 µM	16 µM	21.5 µM	18.5 µM	23.5 µM	9.79 µM	10.5 µM	14.6 µM	10.8 µM	9.26 µM	5.05 µM	3.17 µM	6.32 µM	5.75 µM	10.8 µM
Cc1ncc(C(=O)Nc2ccc(CN3CCN(C)CC3)c(C(F)(F)F)c2)cc1C#Cc1ccc(N)nc1	1.66 µM	0.995 µM	5.06 µM	1.1 µM	5.64 µM	1.91 µM	3.74 µM	3.7 µM	1 µM	4.12 µM	0.206 µM	0.117 µM	1.22 µM	0.367 µM	1.03 µM	0.29 µM	0.122 µM	0.224 µM	0.532 µM	0.186 µM
CCN(Cc1cc(F)ccc1F)c1ccc(CO)c(Cl)c1	0.178 µM	29.6 µM	80.3 µM	30.4 µM	39.9 µM	34.7 µM	1.15 µM	32.3 µM	22.9 µM	36.7 µM	0.0484 µM	14.3 µM	20.2 µM	15.2 µM	13.6 µM	5.62 µM	0.129 µM	12.8 µM	10.8 µM	15.5 µM
NS(=O)(=O)c1ccc(N=Nc2c(O)[nH]c3ccc(C(=O)NCc4ccncc4)cc23)cc1	> 25 µM	> 25 µM	> 25 µM	> 25 µM	> 25 µM	> 25 µM	> 25 µM	> 25 µM	> 25 µM	> 25 µM	> 25 µM	> 25 µM	> 25 µM	> 25 µM	> 25 µM	> 25 µM	> 25 µM	> 25 µM	> 25 µM	> 25 µM
COc1ccc(NC(=O)/C=C(C)/C=C/C=C(C)/C=C/C2=C(C)CCCC2(C)C)cc1	6.7 µM	12.4 µM	28.1 µM	6.15 µM	31.1 µM	6.01 µM	19 µM	18.1 µM	21.1 µM	20.3 µM	2.83 µM	3.21 µM	14.7 µM	2.59 µM	13.9 µM	2.85 µM	5.85 µM	4.51 µM	9.06 µM	8.2 µM
[O-][N+]1(CC[N+]2([O-])CCCCC2)CCCCC1	> 100 µM	> 100 µM	> 100 µM	> 100 µM	> 100 µM	> 100 µM	> 100 µM	> 100 µM	> 100 µM	> 100 µM										
Cc1ccc2nc(-c3ccc(OCC(=O)N=Nc4c(O)[nH]c5ccccc45)cc3)[nH]c2c1	56.1 µM	> 100 µM	15.9 µM	13.9 µM	> 100 µM	35.9 µM	4.09 µM	> 100 µM	56.1 µM	13.5 µM	11.2 µM	7.37 µM	4.01 µM	3.51 µM	> 100 µM	9.8 µM	1.95 µM	8.69 µM	11.9 µM	3.29 µM
C=C1C(=O)O[C@H]2[C@H]1CC/C(COC(=O)NCc1ccc(OC)cc1)=C\CC[C@@]1(C)O[C@@H]21	5.01 µM	1.49 µM	11 µM	3.65 µM	21.6 µM	2.1 µM	13.5 µM	1.87 µM	17.2 µM	2.95 µM	1.1 µM	0.58 µM	3.01 µM	0.973 µM	2.69 µM	0.813 µM	0.992 µM	0.57 µM	2.85 µM	0.726 µM
CCCCCCCC(=O)OCCCC1[C@]2(C)CC[C@@]3(C)C([C@H](C)CCC=C(C)C)CC[C@]3(C)C2CC[C@]12OC2(C)C (stereo partly specified)	92.3 µM	45.4 µM	97.6 µM	59.5 µM	> 100 µM	67.4 µM	> 100 µM	> 100 µM	> 100 µM	> 100 µM	22.8 µM	22.9 µM	34.5 µM	26.5 µM	35 µM	28.5 µM	78.9 µM	29.4 µM	33.9 µM	38.1 µM
CN1CCN(Cc2ccc(NC(=O)c3cncc(C#Cc4cnc(N)cc4C#N)c3)cc2C(F)(F)F)CC1	11.9 µM	9.39 µM	18.9 µM	3.55 µM	33.4 µM	3.58 µM		13.9 µM	7.11 µM	15.5 µM	0.706 µM	1.57 µM	6.27 µM	0.959 µM	13.7 µM	0.768 µM		3.87 µM	2.29 µM	3.25 µM
CN(Cc1ccc(C(F)(F)F)cc1)CC(O)C(=O)Nc1ccc(Cl)cc1 (stereo unspecified)	3.7 µM	2.92 µM	3.28 µM	3.24 µM	3.02 µM	3.09 µM	2.26 µM	2.61 µM	3.11 µM	2.77 µM	1.83 µM	1.55 µM	1.78 µM	1.73 µM	1.58 µM	1.37 µM	1 µM	1.28 µM	1.67 µM	1.38 µM
O=C(/C=C/c1ccc(C(F)(F)F)cc1)Nc1ccc(C=C2c3ccccc3C(=O)c3ccccc32)cc1	> 100 µM	> 100 µM	> 100 µM	96.3 µM	30.9 µM	8.75 µM	> 100 µM	> 100 µM	13.4 µM	> 100 µM	14.2 µM	19.4 µM	8.61 µM	23.1 µM	2.86 µM	1.78 µM	5.26 µM	4.18 µM	2.71 µM	30.5 µM
CC(C)c1nc(N(C)S(C)(=O)=O)nc(-c2ccc(F)cc2)c1/C=C/[C@@H](O)C[C@@H](O)CC(=O)O	> 100 µM	> 100 µM	> 100 µM	> 100 µM	> 100 µM	> 100 µM	> 100 µM	> 100 µM	> 100 µM	> 100 µM	> 100 µM	34.2 µM	48.2 µM	> 100 µM	48.6 µM	> 100 µM	> 100 µM	57.4 µM	52.7 µM	> 100 µM
CN(C)CCNC(=O)c1ccc(-c2nc3ccc4[nH]ncc4c3c3c2C2CCC3C2)cc1 (stereo unspecified)	5.43 µM	6.91 µM	9.81 µM	2.39 µM	26.8 µM	2.52 µM	5.53 µM	11.4 µM	4.57 µM	6 µM	1.28 µM	0.564 µM	2.69 µM	0.702 µM	8.3 µM	0.388 µM	1.6 µM	2.44 µM	1.49 µM	0.965 µM
COc1ccc(C(=O)c2cc3c(N)c(C(=O)Nc4ccccc4)sc3nc2C)cc1	> 100 µM	> 100 µM	> 100 µM	4.57 µM	> 100 µM	26.3 µM	> 100 µM	> 100 µM	10.6 µM	> 100 µM	11.1 µM	1.56 µM	2.02 µM	0.598 µM	0.816 µM	0.5 µM	16.1 µM	0.426 µM	0.459 µM	2.21 µM
CCN1CCN(Cc2ccc(NC(=O)Nc3nc4ccc(Oc5ccnc(C(=O)NC)c5)cc4s3)cc2C(F)(F)F)CC1	3.16 µM	2.71 µM	4.86 µM	2.97 µM	4.21 µM	4.11 µM		3.38 µM	2.9 µM	3.62 µM	1.45 µM	1.39 µM	2.33 µM	1.54 µM	1.95 µM	2.01 µM		1.65 µM	1.52 µM	1.76 µM
